From patent publication US20040082550A1, “Tropolone derivative” (priority 2000, published 2004)

Experiments:
[1] = tested on: promyelocyte leukemia cell strain HL-60; assay: Test for induction of cell differentiation in HL-60 cells (NBT reduction ability); type: cell-based; settings: for Ratio of cells for which differentiation was induced by each compound alone (%): calculated from NBT reduction ability; for Ratio of cells for which differentiation was induced by each compound in combination with 1 × 10^−7 M of HX630 (%): in combination with 1×10^−7 M HX630 (retinoid synergist)
Method: For each of the compounds of the examples, action for inducing cell differentiation was examined for each alone and in combination with 1×10^−7 M of HX630. According to the methods described in Japanese Patent Unexamined Publication (KOKAI) No. (Sho)61-76440/1986, differentiation of the cells of promyelocyte leukemia cell strain HL-60 into granulocytic series cells was determined based on morphological change and measurement of ability to reduce nitro blue tetrazolium (NBT). The ratios (%) of differentiated cells shown in the following table are those calculated from NBT reduction ability. HX630 is a retinoid synergist that enhances actions of retinoids, and the concentrations of −8, −7 and −6 mean that each compound was added at concentrations of 1×10^−8 M, 1×10^−7 M and 1×10^−6 M, respectively.

[2] = compound concentration -6 (1×10^−6 M)
[3] = compound concentration -7 (1×10^−7 M)
[4] = compound concentration -8 (1×10^−8 M)

Row | melting point [°C] | SMILES | Ratio of cells for which differentiation was induced by each compound alone (%) ([1]; concentration -6 (1×10^−6 M)) | Ratio of cells for which differentiation was induced by each compound alone (%) ([1]; concentration -7 (1×10^−7 M)) | Ratio of cells for which differentiation was induced by each compound alone (%) ([1]; concentration -8 (1×10^−8 M)) | Ratio of cells for which differentiation was induced by each compound in combination with 1 × 10^−7 M of HX630 (%) [1, 2] [%] | Ratio of cells for which differentiation was induced by each compound in combination with 1 × 10^−7 M of HX630 (%) [1, 3] [%] | Ratio of cells for which differentiation was induced by each compound in combination with 1 × 10^−7 M of HX630 (%) [1, 4] [%]
1 | 142 | COc1ccc(C(=O)Nc2ccc(O)c(=O)cc2)cc1C12CC3CC(CC(C3)C1)C2 [Tp88] | 46 | 1.2 | 0.9 | 62 | 14 | 2.6
2 | – | CC1(C)CCC(C)(C)c2cc(-c3cccc(-c4ccc(O)c(=O)cc4)c3)ccc21 [Tp190] | 0 | 32 | 1.6 | 50 | 90 | 77
3 | – | COc1ccc(C#Cc2ccc3c(c2)C(C)(C)CCC3(C)C)ccc1=O [Tp141] | 6.4 | 3.3 | 2.2 | 84 | 7 | 4.1
4 | – | CC(C)(C)c1cc(C#Cc2ccc(O)c(=O)cc2)cc(C(C)(C)C)c1 [Tp155] | 62.5 | 24 | 2.7 | 78 | 89 | 68
5 | – | CC1(C)CCC(C)(C)c2cc(-c3ccc(-c4ccc(O)c(=O)cc4)s3)ccc21 [Tp210] | 11 | 6 | 0.8 | 91 | 91 | 64
6 | – | CC1(C)CCC(C)(C)c2cc(C#Cc3cccc(=O)cc3)ccc21 [Tp149] | 40 | 4 | 1.4 | 40 | 85 | 3.5
7 | – | CN(C(=O)c1ccc2c(c1)C(C)(C)CCC2(C)C)c1ccc(O)c(=O)cc1 [Tp82] | 1.4 | 1.2 | 0.5 | 42 | 7 | 1.9
8 | – | CC1(C)CCC(C)(C)c2cc(-c3ccc(-c4ccc(O)c(=O)cc4)o3)ccc21 [Tp200] | 36 | 14 | 2 | 50 | 95 | 77
9 | – | CC1(C)CCC(C)(C)c2cc(C=CC(=O)Nc3ccc(O)c(=O)cc3)ccc21 [Tp90] | 67 | 0.9 | 0.7 | 43 | 2.1 | 1.5
